# From US20200187499A1, “SUBSTITUTED BENZYL-4-AMINOPICOLINIC ESTERS AND PYRIMIDINO-4-CARBOXYLIC ESTERS, METHODS FOR THE PRODUCTION THEREOF, AND USE THEREOF AS HERBICIDES AND PLANT GROWTH REGULATORS” (Bayer CropScience Aktiengesellschaft, priority 2017, published 2020)
# Assays:
# Assay type in all cases: in vivo
# [1] = test system: SETVI; assay: Post-emergence herbicidal action; details: 320 g/ha, assessed after about 3 weeks
# Description: (§1) Seeds of monocotyledonous and dicotyledonous weed and crop plants are laid out in sandy loam soil in wood-fiber pots, covered with soil and cultivated in a greenhouse under good growth conditions. 2 to 3 weeks after sowing, the test plants are treated at the one-leaf stage. The compounds of the invention, formulated in the form of wettable powders (WP) or as emulsion concentrates (EC), are then sprayed onto the green parts of the plants in the form of an aqueous suspension or emulsion at a water application rate equating to 600 to 800 l/ha, with addition of 0.2% wetting agent. After the test plants have been left to stand in the greenhouse under optimal growth conditions for about 3 weeks, the action of the preparations is assessed visually in comparison to untreated controls (herbicidal action in percent (%): 100% activity=the plants have died, 0% activity=like control plants). […] At the same time, inventive compounds leave Gramineae crops such as barley, wheat, rye, millet/sorghum, corn or rice virtually undamaged when applied post-emergence, even at high active ingredient dosages. In addition, some substances are also harmless to dicotyledonous crops such as soya, cotton, oilseed rape, sugar beet or potatoes. Some of the compounds according to the invention have high selectivity and are therefore suitable for controlling unwanted vegetation in agricultural crops by the post-emergence method. The tables below illustrate, in an exemplary manner, the post-emergence herbicidal action of the compounds according to the invention, the herbicidal activity being stated in percent.
# [2] = test system: STEME; assay: Post-emergence herbicidal action; details: Table 6, post-emergence (PO), 320 g/ha, assessed after about 3 weeks
# Description: as §1
# [3] = test system: ABUTH; assay: Post-emergence herbicidal action; details: 320 g/ha, assessed after about 3 weeks
# Description: as §1
# [4] = test system: AMARE; assay: Post-emergence herbicidal action; details: 320 g/ha, assessed after about 3 weeks
# Description: as §1
# [5] = test system: ECHCG; assay: Pre-emergence herbicidal action; details: Table 4, pre-emergence (PE), 320 g/ha, scored after 3 weeks
# Source text: (§2) Seeds of monocotyledonous and dicotyledonous weed plants and crop plants are laid out in sandy loam soil in wood-fiber pots and covered with soil. The compounds of the invention, formulated in the form of wettable powders (WP) or as emulsion concentrates (EC), are then applied to the surface of the covering soil in the form of an aqueous suspension or emulsion at a water application rate equating to 600 to 800 I/ha, with addition of 0.2% wetting agent. After the treatment, the pots are placed in a greenhouse and kept under good growth conditions for the trial plants. The damage to the test plants is scored visually after a test period of 3 weeks by comparison with untreated controls (herbicidal activity in percent (%): 100% activity=the plants have died, 0% activity=like control plants).
# (§3) At the same time, inventive compounds leave Gramineae crops such as barley, wheat, rye, millet/sorghum, corn or rice virtually undamaged when applied pre-emergence, even at high active ingredient dosages. In addition, some substances are also harmless to dicotyledonous crops such as soya, cotton, oilseed rape, sugar beet or potatoes. […] The tables below illustrate, in an exemplary manner, the pre-emergence herbicidal action of the compounds according to the invention, the herbicidal activity being stated in percent.
# [6] = test system: AMARE; assay: Pre-emergence herbicidal action; details: Table 4, pre-emergence (PE), 320 g/ha, scored after 3 weeks
# Source text: as §2, §3
# [7] = test system: ECHCG; assay: Post-emergence herbicidal action; details: 320 g/ha, assessed after about 3 weeks
# Description: as §1
SMILES,"Herbicidal action against SETVI ([1]; Table 6, post-emergence (PO)) [%]",Herbicidal action against STEME [2] [%],"Herbicidal action against ABUTH ([3]; Table 6, post-emergence (PO)) [%]","Herbicidal action against AMARE ([4]; Table 6, post-emergence (PO)) [%]",Herbicidal action against ECHCG [5] [%],Herbicidal action against AMARE [6] [%],other results
Nc1cc(-c2ccc3ccoc3c2)nc(C(=O)OCc2ccc(F)c(F)c2F)c1Cl [Example I-23],90,100,90,100,90,100,–
Nc1c(F)c(-c2ccc3ccoc3c2)nc(C(=O)OCc2ccc(Cl)cc2Cl)c1Cl [Example I-51],–,–,–,–,20,70,"Herbicidal action against ABUTH ([3]; Table 9, post-emergence (PO)): 80%; Herbicidal action against AMARE ([4]; Table 9, post-emergence (PO)): 90%"
Nc1cc(-c2ccc3ccoc3c2F)nc(C(=O)OCc2ccc(Cl)cc2)c1Cl [Example I-49],80,90,90,100,–,–,–
Nc1cc(-c2ccc3ccsc3c2)nc(C(=O)OCc2cccc(Cl)c2)c1Cl [Example I-50],–,–,–,–,70,80,"Herbicidal action against SETVI ([1]; Table 7, post-emergence (PO)): 40%; Herbicidal action against SETVI ([1]; Table 8, post-emergence (PO)): 40%; Herbicidal action against ECHCG ([7]; Table 7, post-emergence (PO)): 90%; Herbicidal action against ECHCG ([7]; Table 8, post-emergence (PO)): 90%; Herbicidal action against ABUTH ([3]; Table 7, post-emergence (PO)): 90%; Herbicidal action against ABUTH ([3]; Table 8, post-emergence (PO)): 90%; Herbicidal action against AMARE ([4]; Table 7, post-emergence (PO)): 100%; Herbicidal action against AMARE ([4]; Table 8, post-emergence (PO)): 100%"
Nc1c(F)c(-c2ccc3sccc3c2)nc(C(=O)OCc2c(F)cc(F)cc2F)c1Cl [Example I-59],80,90,90,90,30,80,–
Nc1cc(-c2ccc3ccoc3c2)nc(C(=O)OCc2cc(F)c(F)cc2F)c1Cl [Example I-27],80,100,90,100,60,100,–
Nc1cc(-c2ccc3ncsc3c2)nc(C(=O)OCc2ccc(F)cc2F)c1Cl [Example I-39],100,70,100,90,–,–,–
Nc1cc(-c2ccc3ncsc3c2)nc(C(=O)OCc2cccc(Cl)c2)c1Cl [Example I-60],–,–,–,–,–,–,"Herbicidal action against SETVI ([1]; Table 7, post-emergence (PO)): 80%; Herbicidal action against SETVI ([1]; Table 8, post-emergence (PO)): 80%; Herbicidal action against ECHCG ([7]; Table 7, post-emergence (PO)): 90%; Herbicidal action against ECHCG ([7]; Table 8, post-emergence (PO)): 90%; Herbicidal action against ABUTH ([3]; Table 7, post-emergence (PO)): 90%; Herbicidal action against ABUTH ([3]; Table 8, post-emergence (PO)): 90%; Herbicidal action against AMARE ([4]; Table 7, post-emergence (PO)): 80%; Herbicidal action against AMARE ([4]; Table 8, post-emergence (PO)): 80%"
Nc1cc(-c2ccc3occc3c2)nc(C(=O)OCc2cccc(Cl)c2)c1Cl [Example I-38],90,100,100,100,–,–,–
Nc1c(F)c(-c2cc3ccoc3cc2F)nc(C(=O)OCc2ccc(Cl)cc2)c1Cl [Example I-68],–,–,–,–,–,–,"Herbicidal action against ABUTH ([3]; Table 9, post-emergence (PO)): 80%; Herbicidal action against AMARE ([4]; Table 9, post-emergence (PO)): 80%"
Nc1cc(-c2ccc3ccsc3c2)nc(C(=O)OCc2ccc(F)c(F)c2F)c1Cl [Example I-46],–,–,–,–,60,100,"Herbicidal action against ABUTH ([3]; Table 9, post-emergence (PO)): 90%; Herbicidal action against AMARE ([4]; Table 9, post-emergence (PO)): 100%"
Nc1c(F)c(-c2ccc3ncsc3c2)nc(C(=O)OCc2ccc(Cl)cc2)c1Cl [Example I-64],90,40,90,90,–,–,–
Nc1cc(-c2ccc3occc3c2)nc(C(=O)OCc2ccccc2C(F)(F)F)c1Cl [Example I-37],90,100,100,100,90,100,–
COc1c(Cl)ccc(Cl)c1COC(=O)c1nc(-c2ccc3occc3c2)cc(N)c1Cl [Example I-57],80,70,90,100,–,–,–
Nc1cc(-c2ccc3ncsc3c2)nc(C(=O)OCc2ccc(Cl)cc2)c1Cl [Example I-69],–,–,–,–,–,–,"Herbicidal action against SETVI ([1]; Table 7, post-emergence (PO)): 80%; Herbicidal action against SETVI ([1]; Table 8, post-emergence (PO)): 80%; Herbicidal action against ECHCG ([7]; Table 7, post-emergence (PO)): 90%; Herbicidal action against ECHCG ([7]; Table 8, post-emergence (PO)): 90%; Herbicidal action against ABUTH ([3]; Table 7, post-emergence (PO)): 90%; Herbicidal action against ABUTH ([3]; Table 8, post-emergence (PO)): 90%; Herbicidal action against AMARE ([4]; Table 7, post-emergence (PO)): 100%; Herbicidal action against AMARE ([4]; Table 8, post-emergence (PO)): 100%"
Nc1c(F)c(-c2cc3ccoc3cc2F)nc(C(=O)OCc2ccc(F)cc2)c1Cl [Example I-71],–,–,–,–,–,–,"Herbicidal action against ABUTH ([3]; Table 9, post-emergence (PO)): 40%; Herbicidal action against AMARE ([4]; Table 9, post-emergence (PO)): 80%"
COc1c(F)ccc(COC(=O)c2nc(-c3ccc4ccoc4c3)cc(N)c2Cl)c1F [Example I-28],100,100,100,100,90,100,–
Nc1c(F)c(-c2ccc3occc3c2)nc(C(=O)OCc2ccc(F)cc2F)c1Cl [Example I-48],30,80,90,90,10,90,–
Nc1cc(-c2ccc3ccsc3c2)nc(C(=O)OCc2ccccc2Cl)c1Cl [Example I-44],60,100,100,100,60,90,–
Nc1cc(-c2ccc3ccoc3c2F)nc(C(=O)OCc2cccc(Cl)c2)c1Cl [Example I-33],80,90,90,100,20,90,–
Nc1cc(-c2ccc3occc3c2)nc(C(=O)OCc2ccc(F)cc2F)c1Cl [Example I-24],80,80,100,100,60,90,–
Nc1c(F)c(-c2cc3ccsc3cc2F)nc(C(=O)OCc2ccc(Cl)cc2)c1Cl [Example I-58],–,–,–,–,–,–,"Herbicidal action against ABUTH ([3]; Table 9, post-emergence (PO)): 90%; Herbicidal action against AMARE ([4]; Table 9, post-emergence (PO)): 100%"
Nc1c(F)c(-c2ccc3occc3c2)nc(C(=O)OCc2ccc(Cl)cc2Cl)c1Cl [Example I-63],–,–,–,–,–,–,"Herbicidal action against ABUTH ([3]; Table 9, post-emergence (PO)): 80%; Herbicidal action against AMARE ([4]; Table 9, post-emergence (PO)): 80%"
Nc1cc(-c2ccc3ccoc3c2)nc(C(=O)OCc2ccc(F)cc2)c1Cl [Example I-26],100,100,100,100,70,100,–
Nc1c(F)c(-c2ccc3sccc3c2)nc(C(=O)OCc2ccc(F)cc2F)c1Cl [Example I-56],80,90,80,90,30,80,–
Nc1c(F)c(-c2ccc3ccsc3c2)nc(C(=O)OCc2ccc(Cl)cc2)c1Cl [Example I-45],30,90,90,90,40,100,–
Nc1cc(-c2ccc3occc3c2)nc(C(=O)OCc2ccccc2[N+](=O)[O-])c1Cl [Example I-62],–,–,–,–,–,–,"Herbicidal action against ABUTH ([3]; Table 9, post-emergence (PO)): 100%; Herbicidal action against AMARE ([4]; Table 9, post-emergence (PO)): 40%"
